Reference: patent publication US20250228865A1, “COMPOUNDS FOR ENHANCING READ THROUGH OF GENES CONTAINING PREMATURE TERMINATION CODONS AND METHODS FOR MAKING AND USING THE SAME” (Sanofi US Services Inc., priority 2022, published 2025)

Key:
[1] = tested on: recombinant human CFTR carrying the premature stop codon (PTC) mutation G542X; experiment: CFTR-PTC mutant translation readthrough, Nanoluc tagged CFTR luminescence (G542X cell line); assay type: cell-based; settings: in combination with G418, G542X cell line; for CFTR G542X ACTIVITY Fold 10 μM G-418: fold over 10 μM G-418; for EC50: 16HBE cells
How it was run: (§1)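 16HBE cells stably expressing Nanoluc-tagged human CFTR with G542X or R1162X, in medium with 3 μM VX-809, treated 48 h at 37 °C with compound (10-point, 2-fold, top 50 μM final) alone or with 10 μM G418. Live-cell Nanoluc luminescence normalised to a maximally effective G418 (125-250 μM).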

[2] = tested on: recombinant human CFTR carrying the premature stop codon (PTC) mutation R1162X; experiment: CFTR-PTC mutant translation readthrough, Nanoluc tagged CFTR luminescence (R1162X cell line); assay type: cell-based; settings: for CFTR R1162X ACTIVITY Fold 10 μM G-418: fold over 10 μM G-418, in combination with G418; for EC50: in combination with G418, 16HBE cells, read-out: CFTR R1162X ACTIVITY EC50
How it was run: as §1

Row | Structure (SMILES) | EC50 [1] | EC50 [2] | CFTR G542X ACTIVITY Fold 10 μM G-418 [1] | CFTR R1162X ACTIVITY Fold 10 μM G-418 [2]
1 | CNCC1CN(c2ncc(OCc3c(Cl)cccc3Cl)cn2)CCO1 (centres unmarked) | 1000 to 10000 nM | 1000 to 10000 nM | B′ (B′ = ≥5X to <10X) | B′ (B′ = ≥5X to <10X)
2 | O=C(O)c1ncn(-c2ccc(OCc3c(Cl)cccc3C(F)(F)F)cn2)n1 [1-(5-{[2-chloro-6-(trifluoromethyl)phenyl]methoxy]pyridin-2-] | 1000 to 10000 nM | > 10000 nM | C′ (C′ = <5X) | –
3 | O=C1O[C@@H](CO)CN1c1ccc(OCc2c(Cl)cccc2C(F)(F)F)cn1 | 1000 to 10000 nM | 1000 to 10000 nM | A′ (A′ = ≥10X) | A′ (A′ = ≥10X)
4 | CC1(O)CCN(c2ncc(OCc3c(Cl)cccc3C(F)(F)F)cn2)CC1 | < 1000 nM | < 1000 nM | A′ (A′ = ≥10X) | A′ (A′ = ≥10X)
5 | Cc1cccc(C(F)(F)F)c1COc1ccc(N2C(=O)CN(C)C2=O)cc1 | < 1000 nM | 1000 to 10000 nM | A′ (A′ = ≥10X) | A′ (A′ = ≥10X)
6 | NCC1CN(c2ccc(OCc3c(Cl)cccc3Cl)cc2)C(=O)O1 (centres unmarked) [5-(aminomethyl)-3-[4-[(2,6-dichlorophenyl)methoxy]phenyl]oxazolidin-2-one] | 1000 to 10000 nM | > 10000 nM | B′ (B′ = ≥5X to <10X) | A′ (A′ = ≥10X)
7 | OCc1nnc(-c2ccc(OCc3c(Cl)cccc3Cl)cc2)o1 [[5-[4-[(2,6-dichlorophenyl)methoxy]phenyl]-1,3,4-oxadiazol-2-yl]methanol] | < 1000 nM | < 1000 nM | A′ (A′ = ≥10X) | A′ (A′ = ≥10X)
8 | OCc1cnn(-c2ncc(OCc3c(Cl)cccc3C(F)(F)F)cn2)n1 | < 1000 nM | 1000 to 10000 nM | A′ (A′ = ≥10X) | –
9 | OCc1ncn(-c2ccc(OCc3c(Cl)cccc3Cl)cc2)n1 [[1-[4-[(2,6-dichlorophenyl)methoxy]phenyl]-1,2,4-triazol-3-yl]methanol] | 1000 to 10000 nM | 1000 to 10000 nM | A′ (A′ = ≥10X) | A′ (A′ = ≥10X)
10 | Cc1cccc(C(F)(F)F)c1COc1cnc(N2CCC(C(N)=O)C2)nc1 (centres unmarked) | < 1000 nM | 1000 to 10000 nM | A′ (A′ = ≥10X) | A′ (A′ = ≥10X)
11 | NC(=O)C1CCN(c2ncc(OCc3c(Cl)cccc3Cl)cn2)C1 (centres unmarked) [1-[5-[(2,6-dichlorophenyl)methoxy]pyrimidin-2-yl]pyrrolidine-3-carboxamide] | 1000 to 10000 nM | 1000 to 10000 nM | A′ (A′ = ≥10X) | A′ (A′ = ≥10X)
12 | Cc1cccc(C(F)(F)F)c1COc1cnc(N2CCC(CO)(CO)CC2)nc1 | < 1000 nM | < 1000 nM | A′ (A′ = ≥10X) | A′ (A′ = ≥10X)
13 | OCc1ncn(-c2ccc(OCc3c(Cl)cccc3OC(F)(F)F)cc2)n1 | 1000 to 10000 nM | 1000 to 10000 nM | A′ (A′ = ≥10X) | A′ (A′ = ≥10X)
14 | Clc1cccc(Cl)c1COc1cnc(-c2nnn[nH]2)nc1 [5-[(2,6-dichlorophenyl)methoxy]-2-(1H-tetrazol-5-yl)pyrimidine] | > 10000 nM | > 10000 nM | – | –
15 | Cc1cccc(C(F)(F)F)c1COc1cnc(N2C(=O)CN(Cc3ccccc3)C2=O)nc1 | < 1000 nM | < 1000 nM | A′ (A′ = ≥10X) | A′ (A′ = ≥10X)
16 | CCc1cccc(C(F)(F)F)c1COc1ccc(N2CCOC(CO)C2)cc1 (centres unmarked) [[4-[4-[[2-ethyl-6-(trifluoromethyl)phenyl]methoxy]phenyl]morpholin-2-yl]methanol] | < 1000 nM | < 1000 nM | A′ (A′ = ≥10X) | A′ (A′ = ≥10X)
17 | Cc1cccc(C(F)(F)F)c1COc1cnc(N2CCC(O)(CCO)CC2)nc1 | < 1000 nM | < 1000 nM | A′ (A′ = ≥10X) | A′ (A′ = ≥10X)

Second part, led by results:

Row | EC50 [1] | EC50 [2] | Structure (SMILES) | CFTR G542X ACTIVITY Fold 10 μM G-418 [1] | CFTR R1162X ACTIVITY Fold 10 μM G-418 [2]
18 | < 1000 nM | < 1000 nM | Cc1cccc(C(F)(F)F)c1COc1ccc(N2CC(=O)N(C)C2=O)nc1 | A′ (A′ = ≥10X) | A′ (A′ = ≥10X)
19 | 1000 to 10000 nM | 1000 to 10000 nM | O=C1CN(c2ncc(OCc3c(Cl)cccc3Cl)cn2)C(=O)N1 [Example 323, 1-{5-[(2,6-dichlorophenyl)methoxy]pyrimidin-2-yl}imidazolidine-2,4-dione] | C′ (C′ = <5X) | C′ (C′ = <5X)
20 | 1000 to 10000 nM | 1000 to 10000 nM | OCc1cnn(-c2ccc(OCc3c(Cl)cccc3Cl)cc2)c1 [[1-[4-[(2,6-dichlorophenyl)methoxy]phenyl]pyrazol-4-yl]methanol] | A′ (A′ = ≥10X) | A′ (A′ = ≥10X)
21 | 1000 to 10000 nM | 1000 to 10000 nM | O=C1O[C@H](CO)CN1c1ccc(OCc2c(Cl)cccc2Cl)cc1 [(5S)-3-[4-[(2,6-dichlorophenyl)methoxy]phenyl]-5-(hydroxymethyl)oxazolidin-2-one] | B′ (B′ = ≥5X to <10X) | B′ (B′ = ≥5X to <10X)
22 | 1000 to 10000 nM | 1000 to 10000 nM | Cc1cccc(C(F)(F)F)c1COc1cnc(N2C[C@H](O)C[C@H](O)C2)nc1 | A′ (A′ = ≥10X) | A′ (A′ = ≥10X)
23 | < 1000 nM | 1000 to 10000 nM | CC1(C)NC(=O)N(c2ccc(OCc3c(Cl)cccc3C(F)(F)F)cc2)C1=O | A′ (A′ = ≥10X) | A′ (A′ = ≥10X)
24 | > 10000 nM | 1000 to 10000 nM | OCC(O)c1ccc(OCc2c(Cl)cccc2Cl)cn1 (centres unmarked) [1-[5-[(2,6-dichlorophenyl)methoxy]-2-pyridyl]ethane-1,2-diol] | A′ (A′ = ≥10X) | B′ (B′ = ≥5X to <10X)
25 | 1000 to 10000 nM | > 10000 nM | CN(CCCO)c1ncc(OCc2c(Cl)cccc2Cl)cn1 [3-[[5-[(2,6-dichlorophenyl)methoxy]pyrimidin-2-yl]-methyl-amino]propan-1-ol] | B′ (B′ = ≥5X to <10X) | B′ (B′ = ≥5X to <10X)
26 | < 1000 nM | < 1000 nM | Cc1cccc(C(F)(F)F)c1COc1cnc(N2CCN3CCOCC3C2)nc1 (centres unmarked) | A′ (A′ = ≥10X) | A′ (A′ = ≥10X)
27 | 1000 to 10000 nM | 1000 to 10000 nM | COCC1CN(c2ccc(OCc3c(Cl)cccc3Cl)cc2)C(=O)N1 (centres unmarked) [1-[4-[(2,6-dichlorophenyl)methoxy]phenyl]-4-(methoxymethyl)imidazolidin-2-one] | B′ (B′ = ≥5X to <10X) | B′ (B′ = ≥5X to <10X)
28 | 1000 to 10000 nM | 1000 to 10000 nM | Cc1cccc(C(F)(F)F)c1COc1cnc(NC(=O)N(C)C)nc1 | A′ (A′ = ≥10X) | C′ (C′ = <5X)
29 | 1000 to 10000 nM | 1000 to 10000 nM | OCCn1ccc(Nc2ccc(OCc3c(Cl)cccc3Cl)cn2)n1 [2-[3-[[5-[(2,6-dichlorophenyl)methoxy]-2-pyridyl]amino]pyrazol-1-yl]ethanol] | A′ (A′ = ≥10X) | A′ (A′ = ≥10X)
30 | < 1000 nM | < 1000 nM | NC(=O)c1ccn(-c2ncc(OCc3c(Cl)cccc3Cl)cn2)n1 [1-[5-[(2,6-dichlorophenyl)methoxy]pyrimidin-2-yl]pyrazole-3-carboxamide] | A′ (A′ = ≥10X) | B′ (B′ = ≥5X to <10X)
